{"source": "paper PMC12181431", "about": "“Unveiling the structure, function and dynamics of StmPr1 in Stenotrophomonas maltophilia virulence” (Scientific Reports, 2025)", "key": {"[1]": {"target": "T1, StmPr1 (Stenotrophomonas maltophilia, UniProt Q93IQ4)", "T1 construct": "StmPr1 36 kDa (self-digested from 47 kDa, C-terminal extension cleaved)", "T1 sequence (Q93IQ4 entry or part of it)": "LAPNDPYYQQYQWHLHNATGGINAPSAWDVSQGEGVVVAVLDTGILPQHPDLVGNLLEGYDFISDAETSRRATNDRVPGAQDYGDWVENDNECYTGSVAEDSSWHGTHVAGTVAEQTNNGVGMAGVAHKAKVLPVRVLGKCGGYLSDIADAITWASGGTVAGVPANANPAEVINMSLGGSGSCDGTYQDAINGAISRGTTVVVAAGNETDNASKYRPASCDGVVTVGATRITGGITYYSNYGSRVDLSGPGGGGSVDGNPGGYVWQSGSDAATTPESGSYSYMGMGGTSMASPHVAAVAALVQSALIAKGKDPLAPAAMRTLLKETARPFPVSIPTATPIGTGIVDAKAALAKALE", "test": "X-ray crystal structure ([…] Å) plus protease activity assay", "type": "biochemical"}, "[2]": {"target": "T2, Proteinase K (Parengyodontium album, UniProt P06873)", "T2 construct": "gene PROK", "T2 sequence (P06873 106-384)": "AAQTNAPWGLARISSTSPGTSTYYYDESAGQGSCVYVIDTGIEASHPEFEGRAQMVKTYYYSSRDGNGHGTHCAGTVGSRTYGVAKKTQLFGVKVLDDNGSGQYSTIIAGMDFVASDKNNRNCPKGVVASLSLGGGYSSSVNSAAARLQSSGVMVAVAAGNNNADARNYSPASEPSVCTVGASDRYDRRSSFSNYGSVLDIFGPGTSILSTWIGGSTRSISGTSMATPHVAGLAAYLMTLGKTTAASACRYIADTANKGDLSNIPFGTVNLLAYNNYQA", "test": "protease activity assay (same assay as for StmPr1)", "type": "biochemical"}}, "note": "Like-named read-outs stand apart in the source and are kept apart here.", "data": [{"compound": "O=S(=O)(F)Cc1ccccc1", "note": "[PMSF]", "values": [{"measurement": "IC50", "setting": "[1]", "value": 125, "unit": "µM"}]}, {"compound": "CC(C)C[C@H](NC(=O)[C@H](Cc1ccccc1)NC(=O)c1cnccn1)B(O)O", "note": "[Bortezomib]", "values": [{"measurement": "IC50", "setting": "[2]", "value": 1450, "unit": "nM"}, {"measurement": "IC50", "setting": "[1]; read-out: IC50", "value": 1.97, "unit": "µM"}]}]}
